Consider one molecule from US20020132758A1, “Method for identifying compounds to treat medical pathologies associated with molecular crystallization” (priority 2001, published 2002).

A short description of the data set: Water solubility of cholesterol at 37° C. determined by HPLC. It is filed as physicochemical. The protocol: Reference is made to two chemical compounds: pure cholesterol (C-pure), and modified cholesterol (C-mod). C-mod is made by partial thermal degradation of C-pure. As a consequence, C-mod is structurally very similar, but not identical, to C-pure. In the first of three steps to this example, a quantity of C-mod is produced by heating 10 grams of dry C-pure in the presence of oxygen for 30 minutes at 134° C., which is a temperature that is 15° below the melting point of the pure substance. In a second step to this example, 10 mg of C-pure is added to one liter of distilled water. The resulting suspension is then stirred at 50° C. for two hours, followed by stirring at 37° C. for 6 hours. The concentration of solute in solution at 37° is then determined by an HPLC analytical method. […] In the third and final step to this example, the process of the second step is repeated with 10 mg of C-pure in one liter of distilled water, and 10 mg of C-mod is also added to the initial suspension. In this case, HPLC determination of the concentration of C-pure in the supernatant solution results in a finding of 1.2 mg/100 mL. […] This increase in apparent solubility of C-pure is considered to be a consequence of the selective inhibition of crystal nucleation and growth, due to the presence of molecules that are similar to but not identical to those of the solute.

In brackets after ≈: the same amount, converted by molar mass.

For `CC(C)CCC[C@@H](C)[C@H]1CC[C@H]2[C@@H]3CC=C4C[C@@H](O)CC[C@]4(C)[C@H]3CC[C@]12C` [C-pure, cholesterol], where the note is “10 mg C-pure plus 10 mg C-mod in one liter distilled water, 37° C., HPLC specific to C-pure”, the “concentration of C-pure in the supernatant solution (apparent solubility)” value is 1.2 mg/100 mL. Where the note is “thermodynamic from solid, 10 mg C-pure in one liter distilled water, stirred 50° C. 2 h then 37° C. 6 h, HPLC, no C-mod”, this molecule came in with a solubility (thermodynamic) of 4.5 µg/mL (≈ 11.6 µM).
